Test results from PubChem BioAssay (NCI).
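Cultured in 96-well plates, cells were exposed to test compound for 48 hours across five concentrations. GI50 marks 50% less growth. At the TGI there is no net growth.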

How the values were obtained:
Assay in all cases: DTP human tumour cell line panel, 48 h
786-0 renal = test system: 786-0 renal
A498 renal = test system: A498 renal
A549 NSCLC = test system: A549 NSCLC
ACHN renal = test system: ACHN renal
BT-549 breast = test system: BT-549 breast
CAKI-1 renal = test system: CAKI-1 renal
CCRF-CEM leukemia = test system: CCRF-CEM leukemia
COLO 205 colon = test system: COLO 205 colon
DU-145 prostate = test system: DU-145 prostate
EKVX NSCLC = test system: EKVX NSCLC
HCC-2998 colon = test system: HCC-2998 colon
HCT-116 colon = test system: HCT-116 colon
HCT-15 colon = test system: HCT-15 colon
HL-60(TB) leukemia = test system: HL-60(TB) leukemia
HOP-62 NSCLC = test system: HOP-62 NSCLC
HOP-92 NSCLC = test system: HOP-92 NSCLC
HS 578T breast = test system: HS 578T breast
HT29 colon = test system: HT29 colon
IGROV1 ovarian = test system: IGROV1 ovarian
K-562 leukemia = test system: K-562 leukemia
KM12 colon = test system: KM12 colon
LOX IMVI melanoma = test system: LOX IMVI melanoma
M14 melanoma = test system: M14 melanoma
MALME-3M melanoma = test system: MALME-3M melanoma
MCF7 breast = test system: MCF7 breast
MDA-MB-231 breast = test system: MDA-MB-231 breast
MDA-MB-435 = test system: MDA-MB-435
MOLT-4 leukemia = test system: MOLT-4 leukemia
NCI-H226 lung = test system: NCI-H226 lung
NCI-H23 lung = test system: NCI-H23 lung
NCI-H460 lung = test system: NCI-H460 lung
NCI-H522 lung = test system: NCI-H522 lung
NCI/ADR-RES ovarian = test system: NCI/ADR-RES ovarian
OVCAR-3 ovarian = test system: OVCAR-3 ovarian
OVCAR-4 ovarian = test system: OVCAR-4 ovarian
OVCAR-5 ovarian = test system: OVCAR-5 ovarian
OVCAR-8 ovarian = test system: OVCAR-8 ovarian
PC-3 prostate = test system: PC-3 prostate
RPMI-8226 leukemia = test system: RPMI-8226 leukemia
RXF 393 renal = test system: RXF 393 renal
SF-268 CNS = test system: SF-268 CNS
SF-295 CNS = test system: SF-295 CNS
SF-539 CNS = test system: SF-539 CNS
SK-MEL-2 melanoma = test system: SK-MEL-2 melanoma
SK-MEL-28 melanoma = test system: SK-MEL-28 melanoma
SK-MEL-5 melanoma = test system: SK-MEL-5 melanoma
SK-OV-3 ovarian = test system: SK-OV-3 ovarian
SN12C renal = test system: SN12C renal
SNB-19 CNS = test system: SNB-19 CNS
SNB-75 CNS = test system: SNB-75 CNS
SR leukemia = test system: SR leukemia
SW-620 colon = test system: SW-620 colon
T-47D breast = test system: T-47D breast
TK-10 renal = test system: TK-10 renal
U251 CNS = test system: U251 CNS
UACC-62 melanoma = test system: UACC-62 melanoma
UO-31 renal = test system: UO-31 renal

## Cc1c([C@H](C(Cl)Cl)[C@H](O)[C@H]2C[C@H](C)C(=O)O2)ccc2c1C(=O)[C@H]1[C@H]2C[C@@H](Br)[C@@]23O[C@@H](CO[C@H]2O)CC13C (stereo partly specified)
786-0 renal
  GI50: 0.481 µM
  TGI: 21.9 µM
A498 renal
  GI50: 0.304 µM
  TGI: > 11.1 µM
A549 NSCLC
  GI50: 0.435 µM
  TGI: > 50 µM
ACHN renal
  GI50: 2.26 µM
  TGI: > 50 µM
BT-549 breast
  GI50: 1.01 µM
  TGI: > 36.3 µM
CAKI-1 renal
  GI50: 0.798 µM
  TGI: > 29.5 µM
CCRF-CEM leukemia
  GI50: 0.33 µM
  TGI: > 50 µM
COLO 205 colon
  GI50: 0.213 µM
  TGI: 1.09 µM
DU-145 prostate
  GI50: 0.157 µM
  TGI: 2.05 µM
EKVX NSCLC
  GI50: 0.695 µM
  TGI: > 50 µM
HCC-2998 colon
  GI50: 0.215 µM
  TGI: 1.12 µM
HCT-116 colon
  GI50: 0.206 µM
  TGI: 5.07 µM
HCT-15 colon
  GI50: 0.373 µM
  TGI: > 50 µM
HL-60(TB) leukemia
  GI50: 0.112 µM
  TGI: > 50 µM
HOP-62 NSCLC
  GI50: 0.571 µM
  TGI: > 50 µM
HOP-92 NSCLC
  GI50: 0.636 µM
  TGI: > 45.3 µM
HS 578T breast
  GI50: 0.708 µM
  TGI: > 39.5 µM
HT29 colon
  GI50: 0.179 µM
  TGI: > 50 µM
IGROV1 ovarian
  GI50: 0.845 µM
  TGI: > 29.6 µM
K-562 leukemia
  GI50: 0.217 µM
  TGI: > 50 µM
KM12 colon
  GI50: 0.26 µM
  TGI: > 16.6 µM
LOX IMVI melanoma
  GI50: 0.602 µM
  TGI: > 50 µM
M14 melanoma
  GI50: 0.207 µM
  TGI: 1.18 µM
MALME-3M melanoma
  GI50: 0.275 µM
  TGI: > 50 µM
MCF7 breast
  GI50: 0.172 µM
  TGI: > 50 µM
MDA-MB-231 breast
  GI50: 0.561 µM
  TGI: > 15.2 µM
MDA-MB-435
  GI50: 0.136 µM
  TGI: 0.425 µM
MOLT-4 leukemia
  GI50: 1.12 µM
  TGI: > 50 µM
NCI-H226 lung
  GI50: > 12.7 µM
  TGI: > 50 µM
NCI-H23 lung
  GI50: 0.295 µM
  TGI: > 15.3 µM
NCI-H460 lung
  GI50: 0.187 µM
  TGI: > 50 µM
NCI-H522 lung
  GI50: 0.183 µM
  TGI: 1.69 µM
NCI/ADR-RES ovarian
  GI50: 2.17 µM
  TGI: 11 µM
OVCAR-3 ovarian
  GI50: 0.181 µM
OVCAR-4 ovarian
  GI50: 1.37 µM
  TGI: > 50 µM
OVCAR-5 ovarian
  GI50: 0.314 µM
  TGI: > 50 µM
OVCAR-8 ovarian
  GI50: 0.449 µM
  TGI: > 50 µM
PC-3 prostate
  GI50: 0.33 µM
  TGI: > 50 µM
RPMI-8226 leukemia
  GI50: 0.24 µM
  TGI: > 50 µM
RXF 393 renal
  GI50: 0.467 µM
SF-268 CNS
  GI50: 0.586 µM
  TGI: > 50 µM
SF-295 CNS
  GI50: 0.22 µM
  TGI: 2.53 µM
SF-539 CNS
  GI50: 0.304 µM
  TGI: 2.79 µM
SK-MEL-2 melanoma
  GI50: 0.403 µM
  TGI: > 22.2 µM
SK-MEL-28 melanoma
  TGI: > 50 µM
SK-MEL-5 melanoma
  GI50: 0.186 µM
  TGI: 3.97 µM
SK-OV-3 ovarian
  GI50: 0.292 µM
  TGI: 4.07 µM
SN12C renal
  GI50: 0.881 µM
  TGI: > 50 µM
SNB-19 CNS
  GI50: 0.38 µM
  TGI: > 50 µM
SNB-75 CNS
  GI50: 0.454 µM
  TGI: > 50 µM
SR leukemia
  GI50: 0.153 µM
  TGI: > 50 µM
SW-620 colon
  GI50: 0.309 µM
  TGI: > 50 µM
T-47D breast
  GI50: 0.258 µM
  TGI: > 50 µM
TK-10 renal
  GI50: 1.68 µM
  TGI: > 50 µM
U251 CNS
  GI50: 0.262 µM
  TGI: > 50 µM
UACC-62 melanoma
  GI50: 0.324 µM
  TGI: > 50 µM
UO-31 renal
  GI50: 8.89 µM
  TGI: > 50 µM
